One series concerns the target T1, human IBAT (Homo sapiens, UniProt Q12908).
T1 construct: expressed in transfected cells; Puromycin-selected IBAT-overexpressing cells
T1 sequence (Q12908 1-348): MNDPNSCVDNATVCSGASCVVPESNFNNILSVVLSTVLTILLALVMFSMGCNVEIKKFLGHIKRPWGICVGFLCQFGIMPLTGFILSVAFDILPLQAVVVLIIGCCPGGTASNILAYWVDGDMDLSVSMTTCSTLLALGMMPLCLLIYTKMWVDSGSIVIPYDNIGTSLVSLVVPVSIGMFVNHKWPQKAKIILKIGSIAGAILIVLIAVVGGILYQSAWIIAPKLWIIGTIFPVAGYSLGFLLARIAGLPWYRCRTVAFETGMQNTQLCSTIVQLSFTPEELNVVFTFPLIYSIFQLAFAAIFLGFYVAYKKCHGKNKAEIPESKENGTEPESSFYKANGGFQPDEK
The series can be described thus: IBAT (h/m) assay, human IBAT-overexpressing cells, 3H-taurocholic acid uptake. It counts as cell-based. The following applies: 0.25 μM 3H-taurocholic acid + 5 μM cold taurocholic acid, 20 minutes, read-out: hIBAT IC50. How it is done:
10,000 cells (Human or Mouse IBAT-overexpressing cells) were seeded in 96-wells plate (Corning CLS3809) in 200 μL MEM-alpha medium (Gibco 12571-063) supplemented with 10% FBS (Gibco 10438026) containing Puromycin (Gibco A1113803) (10 μg/mL) and incubated at 37° C. in 5% CO2 for 48 hours. After incubation, media was decanted from the wells and cells were washed two times with 300 μL of basal MEM-alpha medium (FBS-free). After decanting basal MEM-alpha medium each time, plates were tapped against paper towel to ensure maximum removal of residual media. Test inhibitor dilutions (highest test concentration being 10 μM, 3-fold serial dilution, 10 points) prepared in DMSO (Sigma D2650) were added in incubation mix (maintaining 0.2% final DMSO concentration) containing 0.25 μM 3H-taurocholic acid (ARC ART-1368) and 5 μM of cold taurocholic acid (Sigma T4009). 50 μL of incubation mix containing test inhibitors was then added to the wells (in duplicate) and the plates were incubated for 20 minutes in a CO2 incubator at 37° C. After incubation, the reaction was stopped by keeping the plates on ice water mix for 2-3 minutes and then the incubation mix was aspirated completely from the wells. The wells were washed two times with 250 μL of chilled unlabelled 1 mM taurocholic acid dissolved in HEPES (Gibco 15630080)-buffered (10 mM) HBSS (Gibco 14175079) (pH 7.4). The plates were tapped against a paper towel after every wash to ensure maximum removal of blocking buffer.
100 μL of MicroScint-20 (PerkinElmer 6013621) was added to the wells and kept overnight at room temperature before reading the plates in TopCount NXT™ Microplate Scintillation and Luminescence Counter from PerkinElmer under 3H Test protocol (set at 120 seconds reading time per well).
All test compounds were provided in powder form at room temperature. 10 mM DMSO stocks of the test compounds were prepared, aliquoted and stored at −20° C. From the 10 mM DMSO stock of the compounds, a 3-fold serial dilution in DMSO was prepared to get a total of 10 dilutions of the test compounds. 0.5 μL of this dilution in DMSO was added to 250 μL of FBS-free basal media containing 3H-taurocholic acid and cold taurocholic acid to prepare the incubation mixture.

The nature of series [1]: Bioavailability studies in mice. Type of series: in vivo, mice (C57BL/6 or CD1). To be noted: male, mouse, plasma, 1 mg/kg intravenous vs 10 mg/kg oral. How it is done: (§1) Male mice (C57BL/6 or CD1) or Wistar rats of 8-9 weeks old were used. For each test compound, two groups of 3 animals each were used. One group was administered a single intravenous dose of 1 mg/kg (vehicle 100% DMSO) through the tail vein and the other group was administered a single oral dose of 10 mg/kg through gavage needle. The group that was administered an oral dose was fasted overnight. Blood samples were collected after 0.083, 0.25, 0.5, 1, 2, 4, 6, 8 and 24 hours following intravenous administration, and after 0.25, 0.5, 1, 2, 4, 6, 8 and 24 hours following oral administration. Blood samples were taken from saphenous vein. 0.2% EDTA was used as the anticoagulant. The samples were analyzed by a discovery grade bioanalytical method developed for the estimation of test compound in plasma, using an LC-MS/MS system.

Series [2] in a line: Bioavailability studies in rats. It counts as in vivo. To be noted: male, Wistar, plasma, rat, 1 mg/kg intravenous vs 10 mg/kg oral. How it is done:
as §1

As usually defined, the IC50 is the concentration that inhibits the measured activity by half. Broadly, the bioavailability is dose-corrected exposure relative to a reference, in per cent.

As for `CCCCC1(CCCC)CN(c2ccccc2)c2cc(SC)c(OCC(O)C(=O)O)cc2S(=O)(=O)N1` (racemic) [Example 5, 3-((3,3-dibutyl-7-(methylthio)-1,1-dioxido-5-phenyl-2,3,4,5-tetrahydro-1,2,5-benzothiadiazepin-8-yl)oxy)-2-hydroxypropanoic acid], the IC50 at human IBAT came to 5 nM.

For `CCCCC1(CC)CN(c2ccccc2)c2cc(N(C)C)c(OCCC(=O)O)cc2S(=O)(=O)N1` (racemic) [Example 11, 3-((3-Butyl-7-(dimethylamino)-3-ethyl-1,1-dioxido-5-phenyl-2,3,4,5-tetrahydro-1,2,5-benzothiadiazepin-8-yl)oxy)propanoic acid], at human IBAT, the IC50 is 3 nM. With `CCCCC1(CC)CN(c2ccccc2)c2cc(SC)c(OCCC(=O)O)cc2S(=O)(=O)N1` (single isomer, unassigned) [Example 4, 3-((3-butyl-3-ethyl-7-(methylthio)-1,1-dioxido-5-phenyl-2,3,4,5-tetrahydro-1,2,5-benzothiadiazepin-8-yl)oxy)propanoic acid], the IC50 on human IBAT was 2 nM. Further, the bioavailability in series [1] (CD1 mice) came out at 45%; in series [2], 90%. Regarding `CCCCC1(CCCC)CN(c2ccccc2)c2cc(SC)c(OCC(O)C(=O)O)cc2S(=O)(=O)N1` (single isomer, unassigned) [Example 7, 3-((3,3-dibutyl-7-(methylthio)-1,1-dioxido-5-phenyl-2,3,4,5-tetrahydro-1,2,5-benzothiadiazepin-8-yl)oxy)-2-hydroxypropanoic acid], on human IBAT, the IC50 came to 2 nM. Consider `CCCCC1(CC)CN(c2ccccc2)c2cc(N(C)C)c(OCCC(=O)O)cc2S(=O)(=O)N1` (single isomer, unassigned) [Example 12, 3-((3-butyl-7-(dimethylamino)-3-ethyl-1,1-dioxido-5-phenyl-2,3,4,5-tetrahydro-1,2,5-benzothiadiazepin-8-yl)oxy)propanoic acid], for which the IC50 at human IBAT is 3 nM.

As for `CCCCC1(CCCC)CN(c2ccccc2)c2cc(SC)c(OCCC(=O)O)cc2S(=O)(=O)N1` [Example 1, 3-((3,3-Dibutyl-7-(methylthio)-1,1-dioxido-5-phenyl-2,3,4,5-tetrahydro-1,2,5-benzothiadiazepin-8-yl)oxy)propanoic acid], the IC50 at human IBAT is 7 nM. In addition, the figures for the bioavailability in series [1] (C57BL/6 mice), in series [1] (CD1 mice) and in series [2] (Na^+ salt) were 34%, 59% and 98%, respectively.

With `CCCCC1(CCCC)CN(c2ccccc2)c2cc(SC)c(OC(C)CC(=O)O)cc2S(=O)(=O)N1` (centres unmarked) [Example 8, 3-((3,3-Dibutyl-7-(methylthio)-1,1-dioxido-5-phenyl-2,3,4,5-tetrahydro-1,2,5-benzothiadiazepin-8-yl)oxy)butanoic acid], the IC50 at human IBAT worked out at 12 nM.

Take `CCCCC1(CCCC)CN(c2ccccc2)c2cc(Cl)c(OCCC(=O)O)cc2S(=O)(=O)N1` [Example 9, 3-((3,3-dibutyl-7-chloro-1,1-dioxido-5-phenyl-2,3,4,5-tetrahydro-1,2,5-benzothiadiazepin-8-yl)oxy)propanoic acid]: the IC50 on human IBAT is 21 nM. As to `CCCCC1(CCCC)CN(c2ccc(O)cc2)c2cc(SC)c(OCCC(=O)O)cc2S(=O)(=O)N1` [Example 10, 3-((3,3-dibutyl-5-(4-hydroxyphenyl)-7-(methylthio)-1,1-dioxido-2,3,4,5-tetrahydro-1,2,5-benzothiadiazepin-8-yl)oxy)propanoic acid], the concentration for half-maximal inhibition (IC50) on human IBAT was 2 nM.

Source of the values: US11603359B2, “Benzothiadiazepine compounds and their use as bile acid modulators” (Albireo AB, priority 2019, dated 2023).
